The subject of data set [1] is soybean plants (variety S20-G7). Put plainly: Reduced plant water use in soybean (foliar spray, repeated weighing of pots). Type of data set: in vivo. To be noted: Glycine max, foliar, Table B1, sprayed at 500 μM, vs negative control. Here is the method:
Compounds were tested for their effect on reducing plant water use as follows. Each compound was dissolved in a blank emulsifiable concentrate (EC) formulation that was then diluted to the desired concentration with water containing additional surfactant (EXTRAVON 1 g/20 L). The compounds were applied by foliar spray to 12 day old soybean plants (variety S20-G7) grown in controlled environment plant growth chambers. Plant water use during the day was assessed by repeated weighing of the pots in which the plants were grown before and after application of the compounds at the indicated times (expressed in days after application (DAA)). The water use data before application was used to correct any differences in water use arising due to non-treatment effects (e.g. due to differences in plant size). The untransformed water use values were subjected to an analysis of covariance, fitting the effect of treatment and using the baseline water use 1 day before application as a covariate.
The results are expressed compared to negative control treatment (diluted EC formulation without active ingredient but with EXTRAVON 1 g/20 L).
Application of the chemicals (0 DAA) takes place approximately between 08:00 and 09:30 a.m. WU is measured within day time (chamber light is on 06:00 to 20:00) at these timepoints: 0 DAA a.m. (10:30-12:50), 0 DAA p.m. (14:00-19:50), 1 DAA a.m. (7:30-12:50), 1 DAA p.m. (14:00-19:50), 2 DAA a.m. (07:30-12:50) and 2 DAA p.m. (14:00-19:50). The cumulative total WU (0-2.5 DAA) is calculated by summing the WU data mentioned above.

Data set [2] relates to corn plants (variety NK OCTET). Put plainly: Reduced plant water use in corn (foliar spray, repeated weighing of pots). Type of data set: in vivo. Conditions: Zea mays, corn plants sprayed at 500 μM, average of 6 pots. Here is the method: Compounds were tested for their effect on reducing plant water use as follows. The compounds were applied by foliar spray to 12 day old corn plants (variety NK OCTET) grown in controlled environment plant growth chambers. All compounds were applied using an emulsifiable concentrate (EC) formulation that was diluted to the desired concentrations with water containing 0.4% of the adjuvant rape seed methyl ester. Plant water use during the day was assessed by repeated weighing of the pots in which the plants were grown before and after application of the compounds at the indicated times (expressed in days after application (DAA)). The water use data before application was used to correct any differences in water use arising due to non-treatment effects (e.g. due to differences in plant size). The untransformed water use values were subjected to an analysis of covariance, fitting the effect of treatment and using the baseline water use 1 day before application as a covariate. Application of the chemicals (0 DAA) takes place approximately between 08:00 and 09:30 a.m. WU is measured within day time (chamber light is on 06:00 to 20:00) at these timepoints: 0 DAA a.m. (10:30-12:50), 0 DAA p.m. (14:00-19:50), 1 DAA a.m. (07:30-12:50), 1 DAA p.m. (14:00-19:50), 2 DAA a.m. (07:30-12:50) and 2 DAA p.m. (14:00-19:50). The cumulative total WU (0-2.5 DAA) is calculated by summing the WU data mentioned above.

The mark [3] stands for this setting: 0 h, 0 DAA a.m. (10:30-12:50), read-out: % WU 0 DAA AM.
[4] abbreviates: 24 h, 1 DAA a.m. (7:30-12:50), read-out: % WU 1DAA AM.
The mark [5] stands for this setting: 24 h, 1 DAA p.m. (14:00-19:50), read-out: % WU 1DAA PM.
[6] abbreviates: 48 h, 2 DAA a.m. (07:30-12:50), read-out: % WU 2 DAA AM.
Where [7] appears, read: 48 h, 2 DAA p.m. (14:00-19:50), read-out: % WU 2 DAA PM.
The mark [8] stands for this setting: 60 h, cumulative total WU (0-2.5 DAA), read-out: % WU Total 0 to 2.5 DAA.
Setting [9] is: 0 h, water use during day time vs negative control, 0 DAA a.m. (10:30-12:50), read-out: % WU 0 DAA AM.
[10] abbreviates: 0 h, water use during day time vs negative control, 0 DAA p.m. (14:00-19:50), read-out: % WU 0DAA PM.
[11] abbreviates: 24 h, water use during day time vs negative control, 1 DAA a.m. (07:30-12:50), read-out: % WU 1DAA AM.
Setting [12] is: 24 h, water use during day time vs negative control, 1 DAA p.m. (14:00-19:50), read-out: % WU 1DAA PM.
Where [13] appears, read: 48 h, water use during day time vs negative control, 2 DAA a.m. (07:30-12:50), read-out: % WU 2 DAA AM.
Where [14] appears, read: 48 h, water use during day time vs negative control, 2 DAA p.m. (14:00-19:50), read-out: % WU 2 DAA PM.
[15] abbreviates: 60 h, cumulative total water use 0-2.5 DAA (sum of the time points) vs negative control, read-out: % WU Total 0 to 2.5 DAA.

Like-named read-outs stand apart in the source and are kept apart here.

`CCCN1C(=O)CCc2cc(CNS(=O)(=O)c3ccc(C)cc3C)ccc21` gave a melting point of 166 to 167 °C.
`CCN1C(=O)CCc2cc(CNS(=O)(=O)c3ccccc3C)ccc21` [Compound 2.011, N-[(1-ethyl-2-oxo-3,4-dihydroquinolin-6-yl)methyl]-2-methyl-benzenesulfonamide] yielded a melting point of 203 to 206 °C.
Turning to `CCN1C(=O)CCc2cc(CNS(=O)(=O)c3ccc(C)cc3)ccc21` [Compound 2.012, N-[(1-ethyl-2-oxo-3,4-dihydroquinolin-6-yl)methyl]-4-methyl-benzenesulfonamide], the melting point lay in the range of 202 to 203 °C.
Still for that read-out and setting: for `CCN1C(=O)CCc2cc(CNS(=O)(=O)c3ccccc3Br)ccc21` [Compound 2.017, 2-bromo-N-[(1-ethyl-2-oxo-3,4-dihydroquinolin-6-yl)methyl]benzenesulfonamide] the value was 206 to 207 °C; for `CCN1C(=O)CCc2cc(CNS(=O)(=O)C3CC3)ccc21` [Compound 2.018, N-[(1-ethyl-2-oxo-3,4-dihydroquinolin-6-yl)methyl]cyclopropanesulfonamide], 104 to 106 °C; for `CCN1C(=O)CCc2cc(CNS(=O)(=O)/C=C/c3ccc(Br)cc3)ccc21` [Compound 2.052, (E)-2-(4-bromophenyl)-N-[(1-ethyl-2-oxo-3,4-dihydroquinolin-6-yl)methyl]ethenesulfonamide], 119 to 124 °C.
On to `CCN1C(=O)CCc2cc(CNS(=O)(=O)/C=C/c3ccc(C)cc3)ccc21` [Compound 2.059, (E)-N-[(1-ethyl-2-oxo-3,4-dihydroquinolin-6-yl)methyl]-2-(p-tolyl)ethenesulfonamide], for which the melting point was in the range of 151 to 153 °C.
Still for that read-out and setting: for `CCN1C(=O)CCc2cc(CNS(=O)(=O)c3cn(C)cn3)ccc21` [Compound 2.063, N-[(1-ethyl-2-oxo-3,4-dihydroquinolin-6-yl)methyl]-1-methyl-imidazole-4-sulfonamide] the value was 165 to 167 °C; for `CCN1C(=O)CCc2cc(CNS(=O)(=O)c3cc(Cl)sc3Cl)ccc21` [Compound 2.064, 2,5-dichloro-N-[(1-ethyl-2-oxo-3,4-dihydroquinolin-6-yl)methyl]thiophene-3-sulfonamide], 198 to 201 °C; for `CCCN1C(=O)CCc2cc(CNS(=O)(=O)c3ccc(C(F)(F)F)cc3)ccc21` [Compound 3.015, N-[(2-oxo-1-propyl-3,4-dihydroquinolin-6-yl)methyl]-4-(trifluoromethyl)benzenesulfonamide], 138 to 140 °C.
On the same count and under the same terms, for `CCCN1C(=O)CCc2cc(CNS(=O)(=O)/C=C/c3ccc(C)cc3)ccc21` [Compound 3.059, (E)-N-[(2-oxo-1-propyl-3,4-dihydroquinolin-6-yl)methyl]-2-(p-tolyl)ethenesulfonamide] the value was 172 to 174 °C; for `CCCN1C(=O)CCc2cc(CNS(=O)(=O)/C=C/c3cccc(Br)c3)ccc21` [Compound 3.070, (E)-2-(3-bromophenyl)-N-[(2-oxo-1-propyl-3,4-dihydroquinolin-6-yl)methyl]ethenesulfonamide], 148 to 153 °C.
For the compound `CCCN1C(=O)CCc2cc(C3(NS(=O)(=O)c4ccccc4)CC3)ccc21` [Compound 15.001, N-[1-(2-oxo-1-propyl-3,4-dihydroquinolin-6-yl)cyclopropyl]benzenesulfonamide], the change in vivo at 500 µM in data set [1] (setting [3]) is -27.4%; in data set [1] (setting [4]) it was -14.9%; in data set [1] (setting [5]), -13.9%; in data set [1] (setting [6]) it was -9.5%; in data set [1] (setting [7]) it was -7.2%; in data set [1] (setting [8]), -15.1%. For the same compound, the change in vivo at 500 µM is -8.2% in data set [2] (setting [9]); -6.5% in data set [2] (setting [10]); -6.5% in data set [2] (setting [11]); -3.5% in data set [2] (setting [12]); -2.8% in data set [2] (setting [13]); -1.8% in data set [2] (setting [14]). Also, in data set [2] (setting [15]), the change in vivo at 500 µM was -4.3%.
As to `CCCN1C(=O)CCc2cc(C3(NS(=O)(=O)c4ccc(F)cc4F)CC3)ccc21` [Compound 15.006, 2,4-difluoro-N-[1-(2-oxo-1-propyl-3,4-dihydroquinolin-6-yl)cyclopropyl]benzenesulfonamide], the change in vivo at 500 µM in data set [1] (setting [3]) was -32.6%; in data set [1] (setting [4]), -23.6%; in data set [1] (setting [5]), -24.4%; in data set [1] (setting [6]) it was -17%; in data set [1] (setting [7]), -17.8%; in data set [1] (setting [8]), -23.8%. The change in vivo at 500 µM in data set [2] (setting [9]) was -10.2%; in data set [2] (setting [10]) it was -3%; in data set [2] (setting [11]), -1.4%; in data set [2] (setting [12]) it was 0.1%; in data set [2] (setting [13]), 1.7%; in data set [2] (setting [14]), 1.1%. Also, in data set [2] (setting [15]), the change in vivo at 500 µM is -1.2%.
As to `CCN1C(=O)CC(C)c2cc(CNS(=O)(=O)c3ccccc3)ccc21` (stereo not drawn) [Compound 20.001, N-[(1-ethyl-4-methyl-2-oxo-3,4-dihydroquinolin-6-yl)methyl]benzenesulfonamide], the change in vivo at 500 µM in data set [1] (setting [3]) is -50.1%; in data set [1] (setting [4]), -58.5%; in data set [1] (setting [5]) it was -55.2%; in data set [1] (setting [6]) it was -55.8%; in data set [1] (setting [7]), -50.5%; in data set [1] (setting [8]) it was -54.4%. Besides, the change in vivo at 500 µM in data set [2] (setting [9]) is -21.7%; in data set [2] (setting [10]), -18.3%; in data set [2] (setting [11]), -19.2%; in data set [2] (setting [12]), -10.3%; in data set [2] (setting [13]), -8.1%; in data set [2] (setting [14]) it was -5.5%. Further, the change in vivo at 500 µM in data set [2] (setting [15]) is -12.9%.

The values above are taken from US10392348B2, “2-oxo-3,4-dihydroquinoline compounds as plant growth regulators” (Syngenta Participations AG, priority 2015, dated 2019).
